Measurements published in patent US5719291A, “Cyclohexane derivatives” (Hoffmann-La Roche Inc., priority 1991, dated 1998).
In brackets after ≈: the same amount, converted by molar mass. Counter-ions that a name gives are not always drawn. Like-named read-outs stand apart in the source and are kept apart here.

Columns and labels:
Assay in all cases: In vitro antifungal activity, IC80 (Method B)
Format in all cases: cell-based
[1] = system: C. neoformans; conditions: Cryptococcus neoformans, 1-2 days, 27° C., read-out: Antifungal activity IC80
Protocol: (§1) The in vitro antifungal activities of the representative compounds of the present invention shown in Table 1 and Table 2 were measured by determining the minimal inhibitory concentrations (MIC: Method A) or 80% growth inhibition concentration (IC80 : Method B) respectively. MIC is defined as the concentration of an antifungal at which growth of fungi is not observed and IC80 is the concentration where cell turbidity measured at OD630 is reduced by 80%.
(§2) Antifungal activities were determined by either method A or B (see below) using microtest plates according NCCLS with minor modifications (Galgiani et at., Antimicrob. Agents Chemother. 33, 731 (1989)).
(§3) (Method B) The medium for yeast was buffered to pH 7.0 with 0.25% K2 HPO4 in Yeast Nitrogen Base (Difco Lab.). For the filamentous fungi, 0.2% of low melting point agar was supplemented to the above medium. Inoculum size was 1×10^4 cells/ml, and incubation was carried out for 1-2 days at 27° C. Fluconazole (Pfizer) was used as reference.

[2] = system: A. fumigatus; conditions: Aspergillus fumigatus, 1×10^4 cells/ml, 1-2 days, 27° C., 0.2% agar, read-out: Antifungal activity IC80
Protocol: as §1, §2, §3

[3] = system: Candida albicans; conditions: 1-2 days, 27° C., read-out: Antifungal activity IC80
Protocol: as §1, §2, §3

[4] = pH 7, C. neoformans CY1057, 1×10^4 cells/ml
[5] = pH 7, C. neoformans CY1059, 1×10^4 cells/ml
[6] = pH 7, Candida albicans CY1002, 1×10^4 cells/ml
[7] = pH 7, Candida albicans CY1005, 1×10^4 cells/ml
[8] = pH 7, Candida albicans CY3003, 1×10^4 cells/ml

SMILES	IC80 [1, 4] [µg/mL]	IC80 [1, 5] [µg/mL]	IC80 ([2]; A. fumigatus CF1003) [µg/mL]	IC80 ([2]; A. fumigatus CF1004) [µg/mL]	IC80 [3, 6] [µg/mL]	IC80 [3, 7] [µg/mL]	IC80 [3, 8] [µg/mL]
CO[C@@H]1[C@@H](Cn2cncn2)[C@H](CSc2ccc(Cl)cc2)CCC1(C)C [Example 73, 1-[[(1R,2R,6R)-6-[(4-chlorophenylthio)methyl]-2-methoxy-3,3-dimethylcyclohexyl]methyl]-1H-1,2,4-triazole]	5.8 (≈ 15.3 µM)	6.1 (≈ 16.1 µM)	23 (≈ 60.5 µM)	23 (≈ 60.5 µM)	0.008 (≈ 0.0211 µM)	0.011 (≈ 0.029 µM)	0.02 (≈ 0.0526 µM)
CCc1ccc(CC[C@@H]2CCC(C)(C)[C@H](OC)[C@H]2Cn2cncn2)cc1 [Example 81, 1-[[(1R,2R,6R)-6-(4-ethylphenyl)ethyl-2-methoxy-3,3-dimethyl-cyclohexyl]methyl]-1H-1,2,4-triazole]	1.5 (≈ 4.22 µM)	1.5 (≈ 4.22 µM)	> 200	> 200	0.0075 (≈ 0.0211 µM)	0.025 (≈ 0.0703 µM)	0.0042 (≈ 0.0118 µM)
CCCCCCCCO[C@@H]1CCC(C)(C)[C@H](OC)[C@H]1NC(=O)CN [Example 54, (1R,2S,3S)-2-[(aminoacetyl)amino-4,4-dimethyl-3-methoxy-1-octyloxycyclohexanetrifluoroacetic acid salt]	46	47	150	140	18	12	18
CO[C@@H]1[C@@H](Cn2cncn2)[C@H](CCc2ccc(Cl)cc2)CCC1(C)C [Example 72, 1-[[(1R,2R,6R)-6-[2-(4-chlorophenyl)ethyl]-2-methoxy-3,3-dimethylcyclohexyl]methyl]-1H-1,2,4-triazole]	1.3 (≈ 3.59 µM)	4.8 (≈ 13.3 µM)	14 (≈ 38.7 µM)	12 (≈ 33.2 µM)	0.095 (≈ 0.262 µM)	0.094 (≈ 0.26 µM)	0.06 (≈ 0.166 µM)
CO[C@@H]1[C@@H](Cn2cncn2)[C@H](CCc2ccc3ccccc3n2)CCC1(C)C [Example 76, 1-[[(1R,2R,6S)-2-methoxy-3,3-dimethyl-6-(2-quinolin-2-ylethyl)cyclohexyl]methyl]-1H,1,2,4-triazole]	10 (≈ 26.4 µM)	30 (≈ 79.3 µM)	30 (≈ 79.3 µM)	36 (≈ 95.1 µM)	0.38 (≈ 1 µM)	0.77 (≈ 2.03 µM)	0.36 (≈ 0.951 µM)
CO[C@@H]1[C@@H](Cn2cncn2)[C@H](CCc2ccc(OC(F)(F)F)cc2)CCC1(C)C [Example 78, 1-[[(1R,2R,6R)-6-(p-trifluoromethoxyphenethyl)-2-methoxy-3,3-dimethylcyclohexyl]methyl]-1H-1,2,4-triazole]	8.4 (≈ 20.4 µM)	21 (≈ 51 µM)	> 200	> 200	0.03 (≈ 0.0729 µM)	0.093 (≈ 0.226 µM)	0.071 (≈ 0.173 µM)
CO[C@@H]1[C@@H](Cn2cncn2)[C@H](CCc2ccc(C)cc2)CCC1(C)C [Example 74]	0.46 (≈ 1.35 µM)	3.8 (≈ 11.1 µM)	20 (≈ 58.6 µM)	24 (≈ 70.3 µM)	0.076 (≈ 0.223 µM)	0.093 (≈ 0.272 µM)	0.038 (≈ 0.111 µM)
CO[C@@H]1[C@@H](Cn2cncn2)[C@H](CCc2ccc(F)cc2F)CCC1(C)C [Example 80, 1-[[(1R,2R,6S)-6-(2,4-difluorophenethyl)-2-methoxy-3,3-dimethylcyclohexyl]methyl]-1H-1,2,4-triazole]	11 (≈ 30.3 µM)	12 (≈ 33 µM)	93 (≈ 256 µM)	40 (≈ 110 µM)	0.35 (≈ 0.963 µM)	0.65 (≈ 1.79 µM)	0.19 (≈ 0.523 µM)
